The values that follow come from paper PMC3844542 (Anesthesia and analgesia, 2013).

SMILES strings stand for the structures.

Experiment [1] concerns the target leukocyte function–associated antigen-1 (LFA-1) (Homo sapiens, UniProt P20701). Description: ELISA-type ICAM-1–LFA-1 binding assay with purified LFA-1. In kind it is biochemical. (ELISA stands for enzyme-linked immunosorbent assay.)
The target of experiment [2] is T1, LFA-1 αL I domain (wild-type, low-affinity conformer) (Homo sapiens, UniProt P20701).
T1 sequence (P20701 153-332): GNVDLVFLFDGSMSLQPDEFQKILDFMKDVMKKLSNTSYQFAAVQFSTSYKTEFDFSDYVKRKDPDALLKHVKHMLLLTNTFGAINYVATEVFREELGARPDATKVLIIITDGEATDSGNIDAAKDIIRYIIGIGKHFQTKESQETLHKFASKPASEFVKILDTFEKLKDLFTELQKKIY
Description: 1-aminoanthracene fluorescence displacement assay. In kind it is binding.

Chain of leukocyte function–associated antigen-1 (LFA-1) (P20701 26-1090 limits assumed): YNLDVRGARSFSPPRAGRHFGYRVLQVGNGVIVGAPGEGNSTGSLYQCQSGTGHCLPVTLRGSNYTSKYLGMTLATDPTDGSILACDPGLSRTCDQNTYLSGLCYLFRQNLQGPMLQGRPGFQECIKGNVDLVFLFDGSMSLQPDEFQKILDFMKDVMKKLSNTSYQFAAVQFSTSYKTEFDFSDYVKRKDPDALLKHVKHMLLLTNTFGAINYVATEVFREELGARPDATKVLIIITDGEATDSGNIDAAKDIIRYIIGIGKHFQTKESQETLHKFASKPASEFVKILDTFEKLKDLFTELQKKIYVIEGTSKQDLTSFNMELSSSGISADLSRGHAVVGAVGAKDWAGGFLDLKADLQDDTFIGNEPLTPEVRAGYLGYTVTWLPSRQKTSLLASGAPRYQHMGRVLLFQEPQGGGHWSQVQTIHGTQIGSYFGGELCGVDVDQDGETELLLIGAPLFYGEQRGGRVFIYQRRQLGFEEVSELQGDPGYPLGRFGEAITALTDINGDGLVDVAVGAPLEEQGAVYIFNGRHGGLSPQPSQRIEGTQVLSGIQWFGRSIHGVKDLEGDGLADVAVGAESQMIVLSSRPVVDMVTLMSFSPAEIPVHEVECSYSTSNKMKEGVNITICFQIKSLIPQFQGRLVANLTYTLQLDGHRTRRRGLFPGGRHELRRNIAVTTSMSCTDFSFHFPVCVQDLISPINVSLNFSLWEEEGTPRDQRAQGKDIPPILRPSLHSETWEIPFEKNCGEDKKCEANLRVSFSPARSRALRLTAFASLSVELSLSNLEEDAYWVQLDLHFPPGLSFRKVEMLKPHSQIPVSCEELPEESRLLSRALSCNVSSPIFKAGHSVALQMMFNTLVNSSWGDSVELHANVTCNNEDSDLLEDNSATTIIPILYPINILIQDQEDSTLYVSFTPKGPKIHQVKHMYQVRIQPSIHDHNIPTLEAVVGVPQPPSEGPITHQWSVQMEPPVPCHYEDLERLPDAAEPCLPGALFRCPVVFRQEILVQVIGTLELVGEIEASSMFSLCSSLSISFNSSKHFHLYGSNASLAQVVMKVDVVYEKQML
Chain of leukocyte function–associated antigen-1 (LFA-1) (P05107 23-769 partner): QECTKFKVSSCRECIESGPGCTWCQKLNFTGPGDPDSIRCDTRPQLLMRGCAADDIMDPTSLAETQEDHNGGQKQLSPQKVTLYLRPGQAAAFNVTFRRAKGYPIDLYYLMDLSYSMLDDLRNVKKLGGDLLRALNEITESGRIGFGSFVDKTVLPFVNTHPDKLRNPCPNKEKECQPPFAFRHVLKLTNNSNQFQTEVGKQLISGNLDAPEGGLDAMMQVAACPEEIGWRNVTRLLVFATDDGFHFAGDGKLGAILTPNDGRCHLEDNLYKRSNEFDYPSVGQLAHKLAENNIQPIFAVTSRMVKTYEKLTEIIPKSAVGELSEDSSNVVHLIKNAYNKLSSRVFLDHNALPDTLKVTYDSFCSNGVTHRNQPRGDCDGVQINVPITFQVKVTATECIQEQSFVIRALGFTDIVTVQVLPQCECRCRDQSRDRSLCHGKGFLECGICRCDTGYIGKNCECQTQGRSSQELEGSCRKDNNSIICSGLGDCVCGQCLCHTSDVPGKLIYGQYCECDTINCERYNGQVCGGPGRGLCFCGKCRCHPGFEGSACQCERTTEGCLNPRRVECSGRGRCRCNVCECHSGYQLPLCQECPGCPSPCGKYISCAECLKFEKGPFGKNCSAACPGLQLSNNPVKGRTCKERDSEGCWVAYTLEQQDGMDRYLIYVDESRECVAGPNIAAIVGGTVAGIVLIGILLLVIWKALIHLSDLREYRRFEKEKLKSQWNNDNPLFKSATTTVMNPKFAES

On to `CC(C)(C)c1cccc(C(C)(C)C)c1O` [DTBP, 2,6-di-tert-butylphenol], for which, in experiment [1], the “ELISA-type ICAM-1-LFA-1 binding assay with purified LFA-1” value is “Both propofol and DTBP inhibited ICAM-1–LFA-1 binding”.
Take `CC(C)c1cccc(C(C)C)c1O` [propofol]: the half-maximal inhibitory concentration (IC50) (commonly the midpoint of a concentration-inhibition curve) in experiment [2] was 90.3 µM.
